# Key:
# physchem = conditions: aqueous buffer
# [1] = Photostability (ICH option 2 UV, HPLC); assay type: physicochemical; conditions: for Photostability, 2 weeks UV Exposed: ICH option 2 UV; for Photostability, 2 weeks UV Exposed / Photostability, 2 weeks Dark Control: about 25° C.; for Photostability, 2 weeks Dark Control: covered with aluminum foil; for decrease in area %, photostability: from time zero to UV exposed
# Experimental: Photo Stability. Samples of the four final salt candidates were transferred (in duplicate) to crystallizing dishes and sealed with Saran® wrap. One dish of each salt was also covered with aluminum foil (as the dark controls). Another dish of each salt was not covered with aluminum foil (as the photoexposed samples). The samples were exposed to ICH compliant option 2 UV sources to examine their stability with respect to light at approximately 25° C. Dark controls and time zero samples were also analyzed for comparison. Samples were analyzed for CYT-1010 by HPLC.
# (§1) HPLC Analysis. Salt candidates were analyzed by total area normalization (TAN). The samples were dissolved in acetonitrile:water (90:10) with 0.1% TFA at a free base concentration of 0.3 mg/mL.
# (§2) • HPLC column: YMC-Pack ODS-A 150 mm, 4.6 mm, 5 micron • Guard Column (optional) None • Column Temp: 25±1° C. • Sample Temp: ambient • Autosampler Flush: 1:1 Water:CAN • Flow Rate: 1.5 mL/min • Injection Volume: 7 μL • UV Detection: 215 nm • Run Time: 32 minutes • Analysis Time: 32 minutes • Mobil Phase: A—0.1% TFA in water • B—0.1% TFA in CAN • Gradient Puym Program*: […]
# Samples of the four salt candidates were exposed to ICH compliant option 2 UV sources to examine their stability with respect to light at approximately 25° C. Dark controls were also analyzed for comparison.
# [2] = HPLC impurity profile at time zero; assay type: physicochemical
# Experimental: as §1, §2
# The scaled-up aspartate, hydrochloride, lactate, and maleate salts together with the free base were analyzed in duplicate by total area normalization (TAN) to determine their impurity profiles. […] The salts were also stressed in solution using heat.
# Samples were prepared at a free base concentration of 0.3 mg/mL. The diluent for all sample preparations was 90:10 acetronitrile:water with 0.1% TFA. All solutions were sonicated for at least five minutes prior to analysis. Analysis was done over four days. The impurity profile of the free base, as shown in the table below, was consistent over this time.
# Time Zero. Some observations were made concerning the HPLC impurity profile of the free base and salt samples. First, impurities at 0.89, 0.92, 1.02, and 1.03 RRT (relative retention time) are detected in the time zero sample preparations of the free base and all four salts. The largest of these four impurities is the 1.02 RRT impurity which is between 0.4 and 0.5 area % in all five compounds. The maleate salt also has a very large impurity peak at time zero (2.7 area %) at 1.14 RRT. Thus the maleate salt has a relatively low area % purity of 96 area %.
# [3] = Solution stability (HPLC total area normalization); assay type: physicochemical; conditions: for Solution stability, 2 weeks at 25° C. / Solution stability, 2 weeks at 40° C. / Solution stability, Time Zero: 90:10 acetonitrile:water with 0.1% TFA; for Solution stability, Time Zero: 0.3 mg/mL
# Experimental: Solution Stability. The four final salt candidates were dissolved (in duplicate) in acetonitrile: water: (90:10) with 0.1% TFA at a concentration of 0.3 mg (free base basis) per mL of solvent. The scintillation vials were sealed. One vial of each salt solution was placed in a 40™C over for 2 weeks. Another vial of each salt solution was stored at 25° C. for 2 week. These solutions (and “time zero” solutions) were analyzed for CYT-1010 by HPLC.
# as §1, §2
# The solution stability characteristics were evaluated by collecting HPLC data on solutions stored in sealed vials for two weeks at approximately 25 and 40° C. The storage solution consisted of 90:10 acetronitrile:water with 0.1% TFA which is the diluent for the HPLC assay.
# [4] = Solid state stability (HPLC total area normalization); assay type: physicochemical; conditions: for Solid state stability, 2 weeks at 25° C. / Solid state stability, 2 weeks at 60° C.: sealed vial
# Experimental: Solid State Stability. Power samples of the four final salt candidates were transferred (in duplicate) to scintillation vials and sealed. One vial of each salt was placed in a 60° C. over for 2 week. Another vial of each salt was stored at 25° C. for 2 week. These samples (and “time zero” solutions) were analyzed for CYT-1010 by HPLC.
# as §1, §2
# The solid state stability characteristics were evaluated by collecting HPLC data on salt samples stored in sealed vials at 25 and 60° C. for two weeks.
# [5] = Dynamic vapor sorption (DVS); assay type: physicochemical; conditions: 25° C.
# Experimental: Dynamic Vapor Sorption (DVS) (Performed by Surface Measurement Systems Ltd., Allentown, Pa.). Samples were run in an automated dynamic vapor sorption analyzer from 0 to 95% relative humidity and back to 0% relative humidity at 25° C. in 5% RH steps. Samples were predried (to constant mass) under a dry nitrogen stream before analysis. Weight change as a function of humidity and time was recorded to construct a moisture isotherm and kinetic plot of water sorption and desorption. Sample masses were generally in the range of 1-5 mg.
# [6] = Oxidation stability (pure oxygen atmosphere, HPLC); assay type: physicochemical
# Experimental: Oxidation Stability. Samples of the four final salt candidates were exposed to a pure oxygen atmosphere for 2 weeks to examiner their stability with respect to oxidation at 25° C. Samples were analyzed for CYT-1010 by total area normalization for impurity profile by HPLC.
# as §1, §2
# Samples of the four salts were exposed to a pure oxygen atmosphere to examine their stability with respect to oxidation at 25° C.
# delta receptors = delta receptors (Homo sapiens, UniProt P41143); conditions: selectivity mu over delta
# [7] = 2 weeks at 25° C. versus time zero
# [8] = 2 weeks at 60° C. as compared to 25° C. data
# [9] = 2 weeks pure oxygen atmosphere, 25° C.
# Chain of delta receptors (P41143 whole entry): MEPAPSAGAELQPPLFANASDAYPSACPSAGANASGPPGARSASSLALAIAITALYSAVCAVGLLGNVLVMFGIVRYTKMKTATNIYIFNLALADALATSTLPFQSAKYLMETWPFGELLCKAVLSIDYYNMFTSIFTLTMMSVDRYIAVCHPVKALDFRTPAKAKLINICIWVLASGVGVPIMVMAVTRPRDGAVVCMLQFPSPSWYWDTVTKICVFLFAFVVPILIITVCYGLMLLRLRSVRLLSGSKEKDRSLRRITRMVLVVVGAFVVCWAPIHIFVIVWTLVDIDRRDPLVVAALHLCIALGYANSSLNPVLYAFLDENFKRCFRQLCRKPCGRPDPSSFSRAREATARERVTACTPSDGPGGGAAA
molecule,measurement,setting,value
"NC(Cc1ccc(O)cc1)C(=O)NC1CCCCNC(=O)C(Cc2ccccc2)NC(=O)C(Cc2c[nH]c3ccccc23)NC1=O [Free Base, H-Tyr-c-[D-Lys-Trp-Phe]]",solubility,physchem; pH 7,< 3 µg/mL
same,solubility,physchem; pH 10,6 µg/mL
same,"Photostability, 2 weeks UV Exposed",[1],98.9 area %
same,"Photostability, 2 weeks Dark Control",[1],99.0 area %
same,"Photostability, Time Zero",[1],99.2 area %
same,"decrease in area %, photostability",[1],0.3 area %
same,Impurity by RRT 0.89,[2],0.09 area %
same,Impurity by RRT 0.92,[2],0.05 area %
same,Impurity by RRT 1.02,[2],0.53 area %
same,Impurity by RRT 1.03,[2],0.16 area %
same,"Solution stability, 2 weeks at 25° C.",[3]; 2 weeks at 25° C.,98.6 area %
same,"Solution stability, 2 weeks at 40° C.",[3]; 2 weeks at 40° C.,98.7 area %
same,Impurity by RRT 0.21,"[3]; solution, 2 weeks at 25° C.",0.50 area %
same,Impurity by RRT 0.89,"[3]; solution, 2 weeks at 25° C.",0.06 area %
same,Impurity by RRT 0.92,"[3]; solution, 2 weeks at 25° C.",0.04 area %
same,Impurity by RRT 0.95,"[3]; solution, 2 weeks at 25° C.",0.06 area %
same,Impurity by RRT 1.02,"[3]; solution, 2 weeks at 25° C.",0.53 area %
same,Impurity by RRT 1.03,"[3]; solution, 2 weeks at 25° C.",0.18 area %
same,Impurity by RRT 0.21,"[3]; solution, 2 weeks at 40° C.",0.50 area %
same,Impurity by RRT 0.89,"[3]; solution, 2 weeks at 40° C.",0.04 area %
same,Impurity by RRT 0.95,"[3]; solution, 2 weeks at 40° C.",0.03 area %
same,Impurity by RRT 1.02,"[3]; solution, 2 weeks at 40° C.",0.51 area %
same,Impurity by RRT 1.03,"[3]; solution, 2 weeks at 40° C.",0.18 area %
same,"Solution stability, Time Zero",[3],99.2 area %
same,"decrease in area %, solid state stability",[4]; [7],0.4 area %
same,"decrease in area %, solid state stability",[4]; [8],decreased slightly
same,"Solid state stability, Time Zero",[4],99.2 area %
same,"Solid state stability, 2 weeks at 25° C.",[4],98.8 area %
same,"Solid state stability, 2 weeks at 60° C.",[4],98.7 area %
same,"changes in HPLC-TAN values upon exposure to heat, light, or oxygen",[4]; summary of Tables 6-9,did not exhibit significant changes
same,DVS water uptake,[5]; by 90% RH,up to 1.7 wt %
same,Impurity by RRT 0.87,[6]; [9],0.04 area %
same,Impurity by RRT 0.89,[6]; [9],0.30 area %
same,Impurity by RRT 0.92,[6]; [9],0.20 area %
same,Impurity by RRT 0.95,[6]; [9],0.04 area %
same,Impurity by RRT 1.02,[6]; [9],0.53 area %
same,Impurity by RRT 1.03,[6]; [9],0.20 area %
same,"Oxidation stability, 2 weeks Oxidation",[6]; [9],97.7 area %
same,"decrease in area %, oxidative stability",[6]; 2 weeks pure oxygen versus time zero,1.5 area %
same,"Oxidation stability, Time Zero",[6],99.2 area %
H-Tyr-Pro-Trp-Phe-NH2 [SEQ ID NO:1],fold weaker binding to delta receptors than to mu opiate receptor,delta receptors,over 4000 fold
Lactate,"Photostability, 2 weeks UV Exposed",[1],98.6 area %
same,"Photostability, 2 weeks Dark Control",[1],99.0 area %
same,"Photostability, Time Zero",[1],99.2 area %
same,"decrease in area %, photostability",[1],0.6 area %
same,Impurity by RRT 0.89,[2],0.04 area %
same,Impurity by RRT 0.92,[2],0.08 area %
same,Impurity by RRT 0.95,[2],0.10 area %
same,Impurity by RRT 1.02,[2],0.49 area %
same,Impurity by RRT 1.03,[2],0.13 area %
same,Impurity by RRT 1.18,[2],<0.03 area %
same,"Solution stability, 2 weeks at 25° C.",[3]; 2 weeks at 25° C.,98.5 area %
same,"Solution stability, 2 weeks at 40° C.",[3]; 2 weeks at 40° C.,98.5 area %
same,Impurity by RRT 0.21,"[3]; solution, 2 weeks at 25° C.",0.59 area %
same,Impurity by RRT 0.89,"[3]; solution, 2 weeks at 25° C.",0.05 area %
same,Impurity by RRT 0.92,"[3]; solution, 2 weeks at 25° C.",0.11 area %
same,Impurity by RRT 0.95,"[3]; solution, 2 weeks at 25° C.",0.14 area %
same,Impurity by RRT 1.02,"[3]; solution, 2 weeks at 25° C.",0.49 area %
same,Impurity by RRT 1.03,"[3]; solution, 2 weeks at 25° C.",0.15 area %
same,Impurity by RRT 0.21,"[3]; solution, 2 weeks at 40° C.",0.62 area %
same,Impurity by RRT 0.89,"[3]; solution, 2 weeks at 40° C.",0.04 area %
same,Impurity by RRT 0.92,"[3]; solution, 2 weeks at 40° C.",0.04 area %
same,Impurity by RRT 0.95,"[3]; solution, 2 weeks at 40° C.",0.14 area %
same,Impurity by RRT 0.98,"[3]; solution, 2 weeks at 40° C.",<0.03 area %
same,Impurity by RRT 1.02,"[3]; solution, 2 weeks at 40° C.",0.50 area %
same,Impurity by RRT 1.03,"[3]; solution, 2 weeks at 40° C.",0.16 area %
same,Impurity by RRT 1.32,"[3]; solution, 2 weeks at 40° C.",<0.03 area %
same,Impurity by RRT 2.39,"[3]; solution, 2 weeks at 40° C.",<0.03 area %
same,"Solution stability, Time Zero",[3],99.2 area %
same,"decrease in area %, solid state stability",[4]; [7],0.2 area %
same,"decrease in area %, solid state stability",[4]; [8],0.5 area %
same,"Solid state stability, Time Zero",[4],99.2 area %
same,"Solid state stability, 2 weeks at 25° C.",[4],99.0 area %
same,"Solid state stability, 2 weeks at 60° C.",[4],98.5 area %
same,DVS water uptake,[5]; 0-70% RH range,1-3 wt %
same,DVS water uptake,[5]; by 90% RH,up to 6 wt %
same,Impurity by RRT 0.87,[6]; [9],<0.03 area %
same,Impurity by RRT 0.89,[6]; [9],0.24 area %
same,Impurity by RRT 0.92,[6]; [9],0.20 area %
same,Impurity by RRT 0.95,[6]; [9],0.13 area %
same,Impurity by RRT 1.02,[6]; [9],0.49 area %
same,Impurity by RRT 1.03,[6]; [9],0.15 area %
same,Impurity by RRT 1.18,[6]; [9],<0.03 area %
same,"Oxidation stability, 2 weeks Oxidation",[6]; [9],98.8 area %
same,"Oxidation stability, Time Zero",[6],99.2 area %
